{
  "source": "patent US7807648B2",
  "about": "“G-rich polynucleotides for the treatment of Huntington's Disease” (University of Delaware, priority 2005, dated 2010)",
  "key": {"GST-Q58-Htn": {"target": "T1, GST-Q58-Htn (Homo sapiens, UniProt P42858, INS38QQQQQQQQQQQQQQQQQQQQQQQQQQQQQQQQQQQQQ)", "T1 construct": "this fragment consists of the amino terminal 171 amino acids with a tract of 58 glutamine residues fused to GST; GST (N, cleaved yes)", "T1 sequence (P42858 with tags, fused parts or gaps with the stated changes limits assumed)": "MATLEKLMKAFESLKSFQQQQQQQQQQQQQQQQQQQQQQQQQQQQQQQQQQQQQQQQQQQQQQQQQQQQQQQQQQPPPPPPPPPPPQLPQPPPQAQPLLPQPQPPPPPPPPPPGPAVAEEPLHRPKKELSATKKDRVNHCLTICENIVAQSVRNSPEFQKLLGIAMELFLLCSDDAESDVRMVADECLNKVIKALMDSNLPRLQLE", "assay": "Biochemical/immunoblotting filter assay of mutant Htt fragment aggregation", "details": "for inhibitory activity on aggregation (overall statement): concentration not given, 0.5-60 μM tested; for inhibitory activity on aggregation (overall statement) / inhibition of aggregate formation: 24 h; for inhibition of Htt aggregation: 1-5 μM concentrations, dose curve FIG. 4; for inhibition of aggregate formation: ODN at 20 μM or 40 μM, FIG. 5/6; for reproducible inhibitory activity: biochemical assay"}, "[1]": {"system": "Httexon1-eGFP fusion protein aggregation in HEK293 cells", "assay": "Aggregate formation (green fluorescent foci) in HEK293 cells transfected with p72Q, microscopy", "assay_type": "cell-based, human", "details": "for inhibition of aggregate formation (number of green fluorescent foci): 150-750 nM; for reproducible inhibitory activity: cell-based assay"}, "polyQ aggregates": {"system": "polyQ aggregates", "details": "cited from earlier work; for inhibition of the aggregation process: R6/2 mouse model; for toxicity: mouse, in vivo"}, "[2]": {"system": "aggregated Htt-eGFP in HEK293 cells", "assay": "FACS analysis of aggregation in HEK293 cells transfected with p72Q", "assay_type": "cell-based, human", "details": "1 μM and 2.5 μM, 48 hours, FIG. 13"}, "[3]": {"details": "co-transfected with p72Q, 48 hours"}},
  "note": "“Also recorded” adds a separate entry of the source.",
  "data": [
    {"compound": "5′-GGGGGTGGGGGTGGGGTGGGGGT-3′ [T40216]", "values": [
      {"measurement": "inhibitory activity on aggregation (overall statement)", "setting": "GST-Q58-Htn", "result": "effective inhibitors of aggregation; also recorded: capable of inhibiting GST-Q58-Htn aggregation"}
    ]},
    {"compound": "5′-GGGTGGGTGGGTGGGT-3′ [T30923]", "values": [
      {"measurement": "dose response of aggregation inhibition", "setting": "GST-Q58-Htn", "result": "dose response visible"},
      {"measurement": "inhibitory activity on aggregation (overall statement)", "setting": "GST-Q58-Htn", "result": "effective inhibitors of aggregation; also recorded: capable of inhibiting GST-Q58-Htn aggregation"},
      {"measurement": "inhibition of aggregate formation (number of green fluorescent foci)", "setting": "[1]; [3]", "result": "could not fully substitute for HDG"}
    ]},
    {"compound": "5′-GGTGGTGGTGGTTGTGGTGGTGGTGG-3′ (DNA GGTGGTGGTGGTTGTGGTGGTGGTGG; listed as DNA, chemistry not given here) [GRO26B]", "values": [
      {"measurement": "inhibitory activity on aggregation (overall statement)", "setting": "GST-Q58-Htn", "result": "inhibit Huntington aggregation"}
    ]},
    {"compound": "5′-TTTGGTGGTGGTGGTTGTGGTGGTGGTGG-3′ [GRO29A]", "values": [
      {"measurement": "inhibitory activity on aggregation (overall statement)", "setting": "GST-Q58-Htn", "result": "inhibit Huntington aggregation"}
    ]},
    {"compound": "Oc1c(I)cc(Cl)c2cccnc12", "note": "[Clioquinol]", "values": [
      {"measurement": "inhibition of the aggregation process", "setting": "polyQ aggregates", "result": "inhibit the aggregation process"},
      {"measurement": "toxicity", "setting": "polyQ aggregates", "result": "neurotoxicity"}
    ]},
    {"compound": "Nc1c(/N=N/c2ccc(-c3ccc(/N=N/c4cc(S(=O)(=O)O)c5ccccc5c4N)cc3)cc2)cc(S(=O)(=O)O)c2ccccc12", "note": "[Congo Red]", "values": [
      {"measurement": "reduction of green fluorescent foci", "setting": "[1]; Congo Red added concurrently with p72Q (0.2 μM or 1 μM), higher dosage, FIG. 8", "result": "significant reduction"},
      {"measurement": "inhibition of aggregate formation (number of green fluorescent foci)", "setting": "[1]; [3]", "result": "displayed effects similar to HDG"},
      {"measurement": "inhibition of aggregate formation", "setting": "[1]; lower dosage of Congo Red (0.2 μM or 1 μM), FIG. 8", "result": "only partially inhibited"},
      {"measurement": "inhibition of the aggregation process", "setting": "polyQ aggregates", "result": "inhibit the aggregation process"},
      {"measurement": "toxicity", "setting": "polyQ aggregates", "result": "neurotoxicity"}
    ]},
    {"compound": "HDA: 20-mer with all As (DNA AAAAAAAAAAAAAAAAAAAA; listed as DNA, chemistry not given here)", "values": [
      {"measurement": "inhibition of Htt aggregation", "setting": "GST-Q58-Htn", "result": "unable to detect any Htt aggregate inhibition"},
      {"measurement": "inhibition of aggregate formation", "setting": "GST-Q58-Htn", "result": "unable to inhibit aggregate formation; also recorded: no inhibition of aggregation was observed"},
      {"measurement": "reproducible inhibitory activity", "setting": "GST-Q58-Htn", "result": "None"},
      {"measurement": "reproducible inhibitory activity", "setting": "[1]", "result": "None"},
      {"measurement": "inhibition of aggregate formation (number of green fluorescent foci)", "setting": "[1]; [3]", "result": "little effect on the number of aggregates; also recorded: does not appear to inhibit aggregate formation"},
      {"measurement": "peak of high intensity eGFP (aggregates)", "setting": "[2]", "result": "little detectable change; also recorded: no significant reduction in aggregates"}
    ]},
    {"compound": "HDG 20/2: HDG 20-mer wherein every other G was substituted with a T residue (DNA GTGTGTGTGTGTGTGTGTGT; listed as DNA, chemistry not given here)", "values": [
      {"measurement": "activity of HDG variants with T residues inserted", "setting": "[1]; co-transfected with p72Q, 48 hours, FIG. 11", "result": "None of these molecules were found to be effective inhibitors of aggregation; also recorded: reduced significantly; also recorded: low level of activity"}
    ]},
    {"compound": "HDT: 20-mer with all T's (DNA TTTTTTTTTTTTTTTTTTTT)", "values": [
      {"measurement": "inhibition of Htt aggregation", "setting": "GST-Q58-Htn", "result": "unable to detect any Htt aggregate inhibition"},
      {"measurement": "inhibition of aggregate formation", "setting": "GST-Q58-Htn", "result": "unable to inhibit aggregate formation; also recorded: no inhibition of aggregation was observed"},
      {"measurement": "reproducible inhibitory activity", "setting": "GST-Q58-Htn", "result": "None"},
      {"measurement": "reproducible inhibitory activity", "setting": "[1]", "result": "None"}
    ]}
  ]
}
